Measurements: patent US11401279B2, “Pyrido[3,2-d]pyrimidine compounds as immunomodulators” (Incyte Corporation, priority 2019, dated 2022)

Legend:
PD-1/PD-L1 = PD-1/PD-L1 (Homo sapiens (Human), UniProt Q9NZQ7); experiment: Homogeneous Time-Resolved Fluorescence (HTRF) PD-1/PD-L1 binding assay; conditions: recombinant human PD-1 and PD-L1
Description: The assays were conducted in a standard black 384-well polystyrene plate with a final volume of 20 μL. Inhibitors were first serially diluted in DMSO and then added to the plate wells before the addition of other reaction components. The final concentration of DMSO in the assay was 1%. The assays were carried out at 25° C. in the PBS buffer (pH 7.4) with 0.05% Tween-20 and 0.1% BSA. Recombinant human PD-L1 protein (19-238) with a His-tag at the C-terminus was purchased from AcroBiosystems (PD1-H5229). Recombinant human PD-1 protein (25-167) with Fc tag at the C-terminus was also purchased from AcroBiosystems (PD1-H5257). PD-L1 and PD-1 proteins were diluted in the assay buffer and 10 μL was added to the plate well. Plates were centrifuged and proteins were preincubated with inhibitors for 40 minutes. The incubation was followed by the addition of 10 μL of HTRF detection buffer supplemented with Europium cryptate-labeled anti-human IgG (PerkinElmer-AD0212) specific for Fc and anti-His antibody conjugated to SureLight®-Allophycocyanin (APC, PerkinElmer-AD0059H). After centrifugation, the plate was incubated at 25° C. for 60 min. before reading on a PHERAstar FS plate reader (665 nm/620 nm ratio). Final concentrations in the assay were—3 nM PD1, 10 nM PD-L1, 1 nM europium anti-human IgG and 20 nM anti-His-Allophycocyanin. IC50 determination was performed by fitting the curve of percent control activity versus the log of the inhibitor concentration using the GraphPad Prism 5.0 software.

[1] = tested on: U2OS/PD-L1 cells and Jurkat-PD-1-SHP cells; experiment: Src homology region 2 domain-containing phosphatase (SHP) assay; format: cell-based; conditions: Homo sapiens, U2OS; PathHunter chemiluminescence, 2 hours
Description: U2OS/PD-L1 cells (DiscoveRx Corporation) were maintained in McCoy's 5A medium with addition of 10% FBS, 0.25 μg/mL Puromycin. After removing the culture media, the cell medium was replaced with assay medium (RPMI1640 medium with 1% FBS). The U2OS/PD-L1 cells were then added in 384-well black clear bottom assay plate (CELLCOAT® Tissue Culture Plates, Greiner Bio-One) at 5000 cells per well in 20 μL assay medium. Test compounds were prepared by serial dilution in DMSO and 125 nL compound were first transferred to the 384 REMP plate well (Thermofisher) by ECHO liquid handler (Labcyte) followed with addition of 27.5 μL assay medium. 5 µL/well compounds in the assay medium were transferred to the cell plate with 0.05% DMSO in the final assay at 0.25 μM. Jurkat-PD-1-SHP cells (DiscoveRx Corporation) were cultured in RPMI1640 medium supplemented with 10% FBS, 250 μg/mL Hygromycin B, 500 μg/mL G418. After the replacement of culture media with assay medium, 5,000 Jurkat-PD-1-SHP cells in 20 μL were dispensed into each well. The assay plate was incubated at 37° C., 5% CO2 for 2 hours before 2.5 μL PathHunter reagent 1 (DiscoveRx Corporation) were added to each well. The assay plate was shaken for 1 min at 350 rpm in the dark followed with addition of 10 μL PathHunter reagent 2 (DiscoveRx Corporation). Chemiluminescent signal was recorded with TopCount reader (Perkin Elmer) after incubation at room temperature for 1 hour. Wells with DMSO were served as the positive controls and wells containing no cells were used as negative controls. IC50 determination was performed by fitting the curve of percentage of control activity versus the log of the compound concentration using the GraphPad Prism 6.0 software.

[2] = tested on: PD-L1 aAPC/CHO-K1 cells and Jurkat-PD-1-NFAT effector cells; experiment: Nuclear factor of activated T-cells (NFAT) assay; format: cell-based; conditions: Cricetulus griseus, CHO-K1; luminescence, 24 hours
Description: PD-L1 aAPC/CHO-Klcells (Promega) were maintained in F-12 medium with addition of 10% FBS, 200 μg/mL Hygromycin B, 250 μg/mL Geneticin (G418). Jurkat-PD-1-NFAT effector cells (Promega) were cultured in RPMI 1640 medium supplemented with 10% FBS, 100 μg/mL Hygromycin B, 500 μg/mL G418. The culture media of PD-L1 aAPC/CHO-K1 cells were first replaced with assay medium (RPMI1640 medium with 1% FBS). The PD-L1 aAPC/CHO-Klcells were then added in a white 384-well white clear bottom assay plate (CELLCOAT® Tissue Culture Plates, Greiner Bio-One) at 8000 per well in 10 μL assay medium. Test compounds were prepared by serial dilution in DMSO and 0.8 μL test compounds in DMSO were first transferred to the 384 REMP plate well (Thermofisher) by PlateMate Plus (Thermofisher) followed with addition of 50 μL plating medium. 5 μL compounds in the assay medium were transferred to the cells with 0.4% DMSO in the final assay at 2 μM. After removing the culture media, 10,000 Jurkat-PD-1-NFAT effector cells in 5 μL assay medium was dispensed into each well. The assay plate was incubated at 37° C., 5% CO2 for 24 hours. After the assay plate was equilibrated to room temp for 15 minutes, 20 μL/well of Bio-Glo™ reagent (Promega) were added. After 8 minutes incubation at room temperature, luminescence was read at with Pherastar microplate reader (BMG Labtech). The fold of induction (FOI) was calculated based on the ratio of luminescence normalized to the DMSO wells within each assay plate. The maximum percentage of induction was reported based on the ratio between the highest FOI of each compound and the maximum FOI of control compound within each assay plate. Wells with DMSO were served as the negative controls and wells containing control compound with the highest FOI were used as positive controls. EC50 determination was performed by fitting the curve of percent control activity versus the log of the compound concentration using the GraphPad Prism 6.0 software.

PD-L1 = PD-L1 (Homo sapiens (Human), UniProt Q9NZQ7); experiment: PD-L1 whole blood internalization assay; format: cell-based; conditions: PD-L1 internalization in human whole blood, CD14+ cells, interferon γ, 24 hour
Description: To determine PD-L1 internalization in human whole blood, normal human blood (Biological Specialty Corp, Colmar. Pa.) was incubated in the presence or absence of a concentration range of test compounds and 1 ng/mL human interferon γ (R&D Systems Inc. Minn. […] Blood was then stained with PD-L1 (MIH1, eBioscience; or BD Biosciences San Jose, Calif.), CD14 (Life Technologies, Carlsbad, Calif.) for 30 minutes in the dark at room temperature. Whole Blood/red cells were lysed/fixed (lysis buffer BD Biosciences) for 5 minutes at 37° C. in the dark and then centrifuged at 1600 RPM for 5 minutes. Cells were resuspended in Stain Buffer (BD Bioscience, San Jose, Calif.) and transferred into 96 well round bottom plates (Corning). Cells were gated on CD14+(BD Biosciences) and PD-L1 expression determined by mean fluorescence intensity (MFI) (BD LSRFortessa™ X-20). IC50 determination was performed by fitting the curve of compound percent inhibition versus the log of the compound concentration using the GraphPad Prism 7.0 software.

[3] = In vivo pharmacokinetics in rats; design: species or system Sprague Dawley rats; conditions: rat, cassette dosing
Description: For in vivo pharmacokinetic experiments, test compounds were administered to male Sprague Dawley rats or male and female Cynomolgus monkeys intravenously or via oral gavage. For intravenous (IV) dosing, test compounds were dosed at 0.5 to 1 mg/kg using a formulation of 10% dimethylacetamide (DMAC) in acidified saline via IV bolus for rat and 5 min or 10 min IV infusion for monkey. For oral (PO) dosing, test compounds were dosed at 1.0 to 3.0 mg/kg using 5% DMAC in 0.5% methylcellulose in citrate buffer (pH 3.5). Blood samples were collected at predose and various time points up to 24 hours postdose. All blood samples were collected using EDTA as the anticoagulant and centrifuged to obtain plasma samples. The plasma concentrations of test compounds were determined by LC-MS methods. The measured plasma concentrations were used to calculate PK parameters by standard noncompartmental methods using Phoenix® WinNonlin software program (version 7.0, Pharsight Corporation).
In rats and monkeys, cassette dosing of test compounds were conducted to obtain preliminary PK parameters.

[4] = male, Sprague-Dawley, plasma, 1.0 mg/kg IV

Sequence of PD-L1 (Q9NZQ7 19-290): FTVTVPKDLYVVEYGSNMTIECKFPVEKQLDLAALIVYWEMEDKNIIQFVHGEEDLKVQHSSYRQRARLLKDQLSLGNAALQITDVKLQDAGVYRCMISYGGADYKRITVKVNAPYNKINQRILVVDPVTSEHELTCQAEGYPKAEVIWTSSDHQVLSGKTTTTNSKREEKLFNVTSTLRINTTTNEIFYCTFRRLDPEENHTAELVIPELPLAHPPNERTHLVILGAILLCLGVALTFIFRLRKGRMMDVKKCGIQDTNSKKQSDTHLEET
Sequence of PD-1/PD-L1 (Q9NZQ7 19-238): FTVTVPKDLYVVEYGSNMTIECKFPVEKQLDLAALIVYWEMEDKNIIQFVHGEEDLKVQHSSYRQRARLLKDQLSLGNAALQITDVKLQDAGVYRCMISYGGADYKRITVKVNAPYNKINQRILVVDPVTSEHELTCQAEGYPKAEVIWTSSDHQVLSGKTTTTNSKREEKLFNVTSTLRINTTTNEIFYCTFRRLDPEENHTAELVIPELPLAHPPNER

With `Cc1c(Nc2nc(C(F)F)nc3cc(CN4CC[C@H](O)C4)cnc23)cccc1-c1cccc(NC(=O)c2nc3c(n2C)CCN(CCC24CCC(C(=O)O)(CC2)C4)C3)c1Cl` [Example 3, (S)-4-(2-(2-((2-chloro-3′-((2-(difluoromethyl)-7-((3-hydroxypyrrolidin-1-yl)methyl)pyrido[3,2-d]pyrimidin-4-yl)amino)-2′-methyl-[1,1′-biphenyl]-3-yl)carbamoyl)-1-methyl-1,4,6,7-tetrahydro-5H-imidazo[4,5-c]pyridin-5-yl)ethyl)bicyclo[2.2.1]heptane-1-carboxylic Acid] the IC50 (PD-1/PD-L1) was 1.5 nM, the IC50 [1] was 2.5 nM and the EC50 [2] was 4 nM. It also gave an IC50 (PD-L1) of 18 nM.

`Cc1c(Nc2nc(C(F)F)nc3cc(CN4CC[C@](C)(O)C4)cnc23)cccc1-c1cccc(NC(=O)c2nc3c(n2C)CCN(CCC24CCC(C(=O)O)(CC2)C4)C3)c1Cl` [Example 4, (S)-4-(2-(2-((2-chloro-3′-((2-(difluoromethyl)-7-((3-hydroxy-3-methylpyrrolidin-1-yl)methyl)pyrido[3,2-d]pyrimidin-4-yl)amino)-2′-methyl-[1,1′-biphenyl]-3-yl)carbamoyl)-1-methyl-1,4,6,7-tetrahydro-5H-imidazo[4,5-c]pyridin-5-yl)ethyl)bicyclo[2.2.1]heptane-1-carboxylic Acid] showed an IC50 (PD-1/PD-L1) of 1.9 nM, an IC50 [1] of 3.5 nM and an EC50 [2] of 4 nM. For the same compound, the IC50 (PD-L1) was 17 nM.

For `Cc1c(NC(=O)c2nc3c(n2C)CCN(CCC24CCC(C(=O)O)(CC2)C4)C3)cccc1-c1cccc(Nc2nc(C(F)F)nc3cc(CN4CC[C@@](C)(O)C4)cnc23)c1C` [Example 6, (R)-4-(2-(2-((3′-((2-(difluoromethyl)-7-((3-hydroxy-3-methylpyrrolidin-1-yl)methyl)pyrido[3,2-d]pyrimidin-4-yl)amino)-2,2′-dimethyl-[1,1′-biphenyl]-3-yl)carbamoyl)-1-methyl-1,4,6,7-tetrahydro-5H-imidazo[4,5-c]pyridin-5-yl)ethyl)bicyclo[2.2.1]heptane-1-carboxylic Acid], the IC50 [1] was 2.2 nM, the EC50 [2] was 8.2 nM and the IC50 (PD-L1) was 31 nM. It also gave a clearance [3, 4] of 12.7 mL/min/kg, a half-life [3, 4] of 4.5 h and a Vd ([3]; male, Sprague-Dawley, plasma, 1.0 mg/kg IV, read-out: Vss) of 2.99 L/kg. The Cmax ([3]; male, Sprague-Dawley, plasma, 3.0 mg/kg PO) was 182 nM, the AUC(0-inf) ([3]; male, Sprague-Dawley, plasma, 3.0 mg/kg PO, read-out: AUC0-inf) was 1.43 µM·h and the F ([3]; 3.0 mg/kg PO) was 30%.

`Cc1c(Nc2nc(C(F)F)nc3cc(CN4CCCC4)cnc23)cccc1-c1cccc(NC(=O)c2nc3c(n2C)CCN(CCC24CCC(C(=O)O)(CC2)C4)C3)c1Cl` [Example 7, 4-(2-(2-((2-chloro-3′-((2-(difluoromethyl)-7-(pyrrolidin-1-ylmethyl)pyrido[3,2-d]pyrimidin-4-yl)amino)-2′-methyl-[1,1′-biphenyl]-3-yl)carbamoyl)-1-methyl-1,4,6,7-tetrahydro-5H-imidazo[4,5-c]pyridin-5-yl)ethyl)bicyclo[2.2.1]heptane-1-carboxylic Acid] showed an IC50 (PD-1/PD-L1) of 1.5 nM, an IC50 [1] of 2.2 nM and an EC50 [2] of 4 nM. For the same compound, the IC50 (PD-L1) was 16 nM.

Work on `Cc1c(Nc2nc(C(F)F)nc3cc(CN4CCC[C@H]4C)cnc23)cccc1-c1cccc(NC(=O)c2nc3c(n2C)CCN(CCC24CCC(C(=O)O)(CC2)C4)C3)c1Cl` [Example 8, (R)-4-(2-(2-((2-chloro-3′-((2-(difluoromethyl)-7-((2-methylpyrrolidin-1-yl)methyl)pyrido[3,2-d]pyrimidin-4-yl)amino)-2′-methyl-[1,1′-biphenyl]-3-yl)carbamoyl)-1-methyl-1,4,6,7-tetrahydro-5H-imidazo[4,5-c]pyridin-5-yl)ethyl)bicyclo[2.2.1]heptane-1-carboxylic Acid] yielded an IC50 (PD-1/PD-L1) of 1.5 nM, an IC50 [1] of 4 nM and an EC50 [2] of 7 nM. For the same compound, the IC50 (PD-L1) was 33 nM.

`Cc1c(Nc2nc(C(F)F)nc3cc(CN[C@@H]4CCC[C@@H]4O)cnc23)cccc1-c1cccc(NC(=O)c2nc3c(n2C)CCN(CCC24CCC(C(=O)O)(CC2)C4)C3)c1Cl` [Example 9, 4-(2-(2-((2-chloro-3′-((2-(difluoromethyl)-7-((((1R,2S)-2-hydroxycyclopentyl)amino)methyl)pyrido[3,2-d]pyrimidin-4-yl)amino)-2′-methyl-[1,1′-biphenyl]-3-yl)carbamoyl)-1-methyl-1,4,6,7-tetrahydro-5H-imidazo[4,5-c]pyridin-5-yl)ethyl)bicyclo[2.2.1]heptane-1-carboxylic Acid] showed an IC50 (PD-1/PD-L1) of 1.7 nM, an IC50 [1] of 4 nM and an EC50 [2] of 3 nM. The IC50 (PD-L1) was 6.4 nM.

Compound `Cn1c(C(=O)Nc2cccc(-c3cccc(NC(=O)c4nc5c(n4C)CCN(C4CCOCC4)C5)c3Cl)c2Cl)nc2c1CCN(CC13CCC(C(=O)O)(CC1)C3)C2` [Example 179, reference compound] has an IC50 (PD-1/PD-L1) of 18 nM, an IC50 [1] of 61 nM and an EC50 [2] of 709 nM.
